From ChEMBL document CHEMBL1157823, “Cyclopeptide Smac mimetics as antagonists of IAP proteins” (Bioorg Med Chem Lett, 2010)

What was measured:
[1] = molecular target: T1, E3 ubiquitin-protein ligase XIAP (Homo sapiens, UniProt P98170); test: Antagonist activity at XIAP BIR3 domain assessed as restoration of caspase 9 activity by caspase-Glo 9 assay; format: functional
[2] = system: MDA-MB-231; test: Cytotoxicity against human MDA-MB-231 cells after 4 days by WST-8 assay; conditions: MDA-MB-231, 96 h
[3] = system: SK-OV-3; test: Cytotoxicity against human SKOV3 cells after 4 days by WST-8 assay; conditions: SK-OV-3, 96 h
[4] = molecular target: Baculoviral IAP repeat-containing protein 2 (Homo sapiens, UniProt Q13490); test: Binding affinity to cIAP1 BIR3 domain by fluorescence polarization assay
[5] = molecular target: T1, E3 ubiquitin-protein ligase XIAP; test: Binding affinity to XIAP linker BIR2-BIR3 domain site 1 by fluorescence polarization assay
[6] = molecular target: T1, E3 ubiquitin-protein ligase XIAP; test: Binding affinity to XIAP linker BIR2-BIR3 domain site 2 by fluorescence polarization assay

T1 sequence (P98170 whole entry, the tested form may be a part): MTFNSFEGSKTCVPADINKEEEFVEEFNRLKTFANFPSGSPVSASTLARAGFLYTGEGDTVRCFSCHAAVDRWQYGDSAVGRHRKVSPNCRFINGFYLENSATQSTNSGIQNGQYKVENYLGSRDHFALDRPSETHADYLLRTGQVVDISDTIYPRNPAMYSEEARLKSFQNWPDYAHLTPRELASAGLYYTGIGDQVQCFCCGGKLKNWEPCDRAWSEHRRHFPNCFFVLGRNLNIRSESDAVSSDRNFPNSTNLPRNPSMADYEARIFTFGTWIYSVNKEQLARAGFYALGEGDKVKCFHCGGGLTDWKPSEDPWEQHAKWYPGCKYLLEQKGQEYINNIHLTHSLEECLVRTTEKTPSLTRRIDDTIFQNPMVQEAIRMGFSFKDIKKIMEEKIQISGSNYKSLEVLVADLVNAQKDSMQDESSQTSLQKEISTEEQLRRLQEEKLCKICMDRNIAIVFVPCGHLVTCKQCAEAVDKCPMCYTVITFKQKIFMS
Chain of Baculoviral IAP repeat-containing protein 2 (Q13490 whole entry, the tested form may be a part): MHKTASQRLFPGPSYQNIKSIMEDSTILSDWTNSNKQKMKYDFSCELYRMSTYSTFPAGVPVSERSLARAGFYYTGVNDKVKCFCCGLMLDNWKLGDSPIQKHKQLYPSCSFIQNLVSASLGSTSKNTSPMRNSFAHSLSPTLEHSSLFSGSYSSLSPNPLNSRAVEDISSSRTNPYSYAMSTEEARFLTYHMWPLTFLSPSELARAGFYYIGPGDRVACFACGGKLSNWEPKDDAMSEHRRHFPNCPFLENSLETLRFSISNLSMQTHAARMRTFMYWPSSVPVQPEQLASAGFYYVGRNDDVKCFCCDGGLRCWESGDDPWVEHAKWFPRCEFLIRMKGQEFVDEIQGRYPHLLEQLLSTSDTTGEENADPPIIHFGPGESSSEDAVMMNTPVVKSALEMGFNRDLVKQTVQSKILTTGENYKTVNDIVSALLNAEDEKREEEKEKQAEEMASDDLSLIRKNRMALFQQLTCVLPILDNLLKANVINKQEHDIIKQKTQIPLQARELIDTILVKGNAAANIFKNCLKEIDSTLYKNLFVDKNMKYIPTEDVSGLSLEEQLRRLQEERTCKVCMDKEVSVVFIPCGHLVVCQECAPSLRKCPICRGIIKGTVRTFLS

IC50 [5]	IC50 [6]	SMILES	Activity [1]	IC50 [2]	IC50 [3]	Ki [4]
–	–	CN[C@@H](C)C(=O)N[C@H]1CCCCn2cc(nn2)[C@H](c2ccccc2)NC(=O)[C@@H]2CCCN2C(=O)[C@@H](NC(=O)[C@H](C)NC)CCCCn2cc(nn2)[C@H](c2ccccc2)NC(=O)[C@@H]2CCCN2C1=O	Dose-dependent effect	–	–	–
–	–	CN[C@@H](C)C(=O)N[C@H]1CCCCn2cc(nn2)[C@H](Cc2ccccc2)NC(=O)[C@@H]2CCCN2C(=O)[C@@H](NC(=O)[C@H](C)NC)CCCCn2cc(nn2)[C@H](Cc2ccccc2)NC(=O)[C@@H]2CCCN2C1=O	Dose-dependent effect	25900 nM	31500 nM	161 nM
1 nM	481 nM	CN[C@@H](C)C(=O)N[C@H]1CCCNC(=O)[C@H](Cc2ccccc2)NC(=O)[C@@H]2CCCN2C(=O)[C@@H](NC(=O)[C@H](C)NC)CCCNC(=O)[C@H](Cc2ccccc2)NC(=O)[C@@H]2CCCN2C1=O	Dose-dependent effect	4600 nM	15900 nM	84 nM
